In patent US20230293526A1, “METHOD FOR TREATING CANCER WITH A REVERSE TRANSCRIPTASE INHIBITOR” (PrimeFour Therapeutics, Inc., priority 2020, published 2023):

What was measured:
[1] = system: human LINE-1; experiment: Human LINE-1 (L1) retrotransposition dual-luciferase reporter assay in HeLa cells; format: cell-based; settings: Homo sapiens, HeLa, 72 h, read-out: Human LINE-1 IC50 (Human L1 activity inhibition)
Procedure: Representative compounds were tested for inhibition of retrotransposition activity of human LINE-1 (L1) retrotransposition reporter assay in HeLa cells according to the following procedure.
Human Cervical Adenocarcinoma Cells (HeLa) were cultured in Dulbecco's Modified Eagle's Medium (DMEM) containing 4500 mg/L glucose, L-glutamine, sodium pyruvate and sodium bicarbonate, supplemented with 10% of heat inactivated fetal bovine serum (FBS). Cells were grown at 37° C. in an atmosphere of 5% CO2. The dual luciferase-encoding plasmid pYX017 was provided by Prof Wenfeng An (Xie, et al., 2011, Nucleic Acids Res).
The reporter assay was performed in 96-well white, optical bottom plates (Thermo Fisher, 165306). 24 hours prior to transfection, HeLa cells were seeded in a density of 2,500 cells per well, in 50 μL of DMEM, 10% FBS media volume. Cells were incubated at 37° C. in an atmosphere of 5% CO2. Seeding was optimized to achieve approximately 30% cell confluency on the day of transfection. A transfection mix was prepared by combining transfection reagent FuGENE® HD (Promega, E2311) and plasmid DNA (100 ng per well) in a 3:1 ratio, in OpiMEM media (Thermo Fisher, 31985062). Next, 5 μL of the transfection mix was combined with 20 μL of DMEM, 10% FBS media, and 25 μL of this mix was added into each well of an assay plate. In each assay plate one column remained untransfected to serve as a blank luminescence signal.
Serial dilution of test compounds was performed in DMSO and transferred to medium. Next, 25 μL of media-diluted compounds series were transferred to an assay plate containing cells and transfection media. The final concentration of DMSO in treated wells was 0.2%. Serial dilutions of compounds were added to an assay plate immediately after transfection. Compounds were tested in triplicates. The assay plate was then incubated with transfection reagent and compounds at 37° C. in an atmosphere of 5% CO2 for 72 hours.
Luciferase reporter activity was quantified with the Dual-Luciferase® Reporter Assay System (Promega) following the manufacturer's manual, with a passive lysis buffer volume increased to 30 μL and lysis incubation time increased to 20 min at room temperature with gentle shaking, to ensure complete cell lysis. Luminescence was measured using a SpectraMax i3×Multi-Mode Microplate Reader, with integration times of 100 ms and 10 ms applied to measure FLuc and RLuc signals, respectively. Relative LNE-1 activity was calculated as Firefly signal/Renilla signal*10,000. In order to determine IC50 values for each compound, dose response data were fit to a logistic using non-linear regression.

[2] = system: cancer cell lines; experiment: Cancer cell proliferation activity of representative nucleosides, CellTiterGlo 72 h (Example 7, Tables 8 and 9); format: cell-based; settings: 72 h
In short: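 Percent viability was set against 0.1% DMSO (100%) and 10 μM staurosporine (0%), with signal from CellTiterGlo luminescence. Dose-response treatment began one day after seeding and lasted 72 h at 37° C under 5% or 10% CO2, with 0.1% final DMSO.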

## C#C[C@]1(CO)O[C@@H](n2ccc(N)nc2=O)C[C@@H]1O [compound 7, 4-amino-1-((2R,4S,5R)-5-ethynyl-4-hydroxy-5 (hydroxymethyl)tetrahydrofuran-2-yl)pyrimidin-2(1H)-one]
[1]
  IC50: 0.0097 µM
[2]; 72 h, 5637, bladder
  IC50: 1.24 µM
[2]; CLS439, bladder
  IC50: > 50 µM
[2]; HS729, muscle
  IC50: 2.1 µM
[2]; J82, bladder
  IC50: 2.77 µM
[2]; JAR, placenta
  IC50: > 50 µM
[2]; MT3, breast
  IC50: 0.57 µM
[2]; PC3, prostate
  IC50: 1.09 µM
[2]; RD, muscle
  IC50: 3.86 µM
[2]; T24, bladder
  IC50: 1.03 µM
[2]; Homo sapiens, 22Rv1, 72 h, 22RV1, prostate
  IC50: 4.8 µM
[2]; Homo sapiens, 786-0, 72 h, 786O, kidney
  IC50: 4.28 µM
[2]; Homo sapiens, A204, 72 h, A204, muscle
  IC50: 0.18 µM
[2]; Homo sapiens, A549, 72 h, A549, lung
  IC50: 2.19 µM
[2]; Homo sapiens, A673, 72 h, A673, bone
  IC50: 1.97 µM
[2]; Homo sapiens, A2780, 72 h, A2780, ovary
  IC50: 2.72 µM
[2]; Homo sapiens, A-375, 72 h, A375, skin
  IC50: 3.54 µM
[2]; Homo sapiens, A-431, 72 h, A431, skin
  IC50: 2.01 µM
[2]; Homo sapiens, ACHN, kidney
  IC50: 2.76 µM
[2]; Homo sapiens, ASPC1, 72 h, ASPC1, pancreas
  IC50: 1.23 µM
[2]; Homo sapiens, BT-20, 72 h, BT20, breast
  IC50: > 50 µM
[2]; Homo sapiens, BXPC-3, 72 h, BXPC3, pancreas
  IC50: 4.12 µM
[2]; Homo sapiens, C-33-A, C33A, endometrial
  IC50: 1.03 µM
[2]; Homo sapiens, CAKI-1, 72 h, CAKI1, kidney
  IC50: 0.45 µM
[2]; Homo sapiens, COLO 205, 72 h, COLO205, colon
  IC50: 0.29 µM
[2]; Homo sapiens, COLO-678, 72 h, COLO678, colon
  IC50: > 50 µM
[2]; Homo sapiens, Ca-Ski, CASKI, endometrial
  IC50: > 50 µM
[2]; Homo sapiens, Calu-6, 72 h, CALU6, lung
  IC50: 6.33 µM
[2]; Homo sapiens, DLD-1, 72 h, DLD1, colon
  IC50: 4.63 µM
[2]; Homo sapiens, DU-145, 72 h, DU145, prostate
  IC50: 3.4 µM
[2]; Homo sapiens, EFO-21, 72 h, EFO21, ovary
  IC50: > 50 µM
[2]; Homo sapiens, EJ-28, 72 h, EJ28, bladder
  IC50: 3.05 µM
[2]; Homo sapiens, Granta-519, 72 h, GRANTA-519, hematological
  IC50: 0.33 µM
[2]; Homo sapiens, HCT-15, 72 h, HCT15, colon
  IC50: 3.28 µM
[2]; Homo sapiens, HCT-116, 72 h, HCT116, colon
  IC50: 2.44 µM
[2]; Homo sapiens, HEK293, 72 h, HEK293, kidney
  IC50: > 50 µM
[2]; Homo sapiens, HL-60, 72 h, HL-60, hematological
  IC50: 2.03 µM
[2]; Homo sapiens, HT-29, 72 h, HT29, colon
  IC50: 4.06 µM
[2]; Homo sapiens, HT-1080, 72 h, HT1080, connective tissue
  IC50: 1.58 µM
[2]; Homo sapiens, HeLa, endometrial
  IC50: 2.11 µM
[2]; Homo sapiens, HepG2, 72 h, HEPG2, liver
  IC50: 3.08 µM
[2]; Homo sapiens, Hs-578T, HS578T, breast
  IC50: 4.73 µM
[2]; Homo sapiens, IGROV-1, 72 h, IGROV1, ovary
  IC50: 3.42 µM
[2]; Homo sapiens, IMR-90, 72 h, IMR90, lung
  IC50: > 50 µM
[2]; Homo sapiens, JEG-3, 72 h, JEG3, placenta
  IC50: > 50 µM
[2]; Homo sapiens, JIMT-1, 72 h, JIMT1, breast
  IC50: 0.82 µM
[2]; Homo sapiens, K562, 72 h, K-562, hematological
  IC50: 3.52 µM
[2]; Homo sapiens, Kasumi 1, 72 h, KASUMI-1, hematological
  IC50: 0.32 µM
[2]; Homo sapiens, L-363, 72 h, L-363, hematological
  IC50: > 50 µM
[2]; Homo sapiens, LoVo, colon
  IC50: 1.9 µM
[2]; Homo sapiens, MCF7, 72 h, MCF7, breast
  IC50: > 50 µM
[2]; Homo sapiens, MDA-MB-231, 72 h, MDAMB231, breast
  IC50: 0.48 µM
[2]; Homo sapiens, MDA-MB-435, 72 h, MDAMB435, skin
  IC50: 3.49 µM
[2]; Homo sapiens, MDA-MB-436, 72 h, MDAMB436, breast
  IC50: 3.8 µM
[2]; Homo sapiens, MDA-MB-468, 72 h, MDAMB468, breast
  IC50: > 50 µM
[2]; Homo sapiens, MG-63, 72 h, MG63, bone
  IC50: 2.93 µM
[2]; Homo sapiens, MHH-ES-1, 72 h, MHHES1, bone
  IC50: 2.06 µM
[2]; Homo sapiens, MIA PaCa-2, 72 h, MIAPACA2, pancreas
  IC50: 5.54 µM
[2]; Homo sapiens, MINO, hematological
  IC50: 0.2 µM
[2]; Homo sapiens, MV4-11, 72 h, MV4-11, hematological
  IC50: 4.32 µM
[2]; Homo sapiens, NCI-H23, 72 h, NCI-H23, lung
  IC50: 2.79 µM
[2]; Homo sapiens, NCI-H82, 72 h, NCIH82, lung
  IC50: 17.1 µM
[2]; Homo sapiens, NCI-H292, 72 h, NCIH292, lung
  IC50: 1.94 µM
[2]; Homo sapiens, NCI-H460, 72 h, NCIH460, ung
  IC50: 2.99 µM
[2]; Homo sapiens, OVCAR-3, 72 h, OVCAR3, ovary
  IC50: 2.39 µM
[2]; Homo sapiens, OVCAR-4, 72 h, OVCAR4, ovary
  IC50: > 50 µM
[2]; Homo sapiens, PANC-1, 72 h, PANC1, pancreas
  IC50: > 50 µM
[2]; Homo sapiens, PLC-PRF-5, 72 h, PLCPRF5, liver
  IC50: > 50 µM
[2]; Homo sapiens, Panc1005, 72 h, PANC1005, pancreas
  IC50: 2.57 µM
[2]; Homo sapiens, Ramos, hematological
  IC50: 0.37 µM
[2]; Homo sapiens, SAOS-2, 72 h, SAOS2, bone
  IC50: 0.64 µM
[2]; Homo sapiens, SK-BR-3, 72 h, SKBR3, breast
  IC50: 2.11 µM
[2]; Homo sapiens, SK-HEP1, 72 h, SKHEP1, liver
  IC50: 1.29 µM
[2]; Homo sapiens, SK-LMS-1, 72 h, SKLMS1, uterus
  IC50: 4.2 µM
[2]; Homo sapiens, SK-MEL-5, 72 h, SKMEL5, skin
  IC50: > 50 µM
[2]; Homo sapiens, SK-MEL-28, 72 h, SKMEL28, skin
  IC50: > 50 µM
[2]; Homo sapiens, SK-OV-3, 72 h, SKOV3, ovary
  IC50: 3.11 µM
[2]; Homo sapiens, SU-DHL10, 72 h, SU-DHL-10, hematological
  IC50: 0.69 µM
[2]; Homo sapiens, SU-DHL-6, 72 h, SU-DHL-6, hematological
  IC50: 1.06 µM
[2]; Homo sapiens, SW-620, 72 h, SW620, colon
  IC50: 2.93 µM
[2]; Homo sapiens, TE-671, 72 h, TE671, muscle
  IC50: 3.49 µM
[2]; Homo sapiens, THP-1, 72 h, THP-1, hematological
  IC50: 3.43 µM
[2]; Homo sapiens, U2OS, bone
  IC50: > 50 µM
[2]; Homo sapiens, UMUC3, 72 h, UMUC3, bladder
  IC50: 3.07 µM
[2]; Homo sapiens, UO-31, 72 h, UO31, kidney
  IC50: 1.53 µM
[2]; Homo sapiens, WSU-NHL, hematological
  IC50: 0.34 µM
[2]; NCI-H358M, NCIH358M, lung
  IC50: 0.29 µM
[2]; PBMC, hematological
  IC50: > 50 µM
[2]; RD-ES, RDES, bone
  IC50: > 50 µM
